According to US8791079B2, “Methods for treating heart failure by inhibiting the mitochondrial sodium-calcium exchanger (mNCE)” (priority 2009, dated 2014):

Columns and labels:
aortic-banded animals [1] = assay: Acute sudden cardiac death model (ascending aortic banding plus isoproterenol 5 mg/kg); type: in vivo, guinea pig; conditions: single dose 5 mg/kg isoproterenol i.p. two days after aortic banding; CGP-37157 by osmotic pump; 77% without CGP-37157
Description: (§1) As provided herein, the presently disclosed subject matter investigated whether these mechanisms underlie sudden cardiac death (SCD) and contractile decompensation in hypertrophic heart failure in two novel guinea-pig models of combined ascending aortic constriction together with β-adrenergic stimulation and whether therapy via mNCE inhibition was effective. Accordingly, in some embodiments, the presently disclosed subject matter provides a therapeutic strategy for treating heart failure.
(§2) Two models were developed: acute SCD and delayed SCD. The acute SCD model used a high dose of isoproterenol (5 mg/kg) administered by a single intraperitoneal injection two days after ascending aortic banding; and the delayed SCD model used low dose isoproterenol (week one: 1 mg/kg; subsequent weeks: 2 mg/kg), administered by daily intraperitoneal injection over the course of five weeks after aortic banding. Additionally, a therapeutic regime comprised of chronic treatment with an inhibitor of mNCE, e.g., CGP-37157, mean dose approximately 40 μg/kg, administered by implantation of an osmotic pump in the abdominal cavity (delivery rate: 0.015 mg/kg/hr) for extended delivery of the compound was initiated.

aortic-banded animals [2] = assay: Delayed sudden cardiac death model (aortic banding plus daily low dose isoproterenol), survival and echocardiography; type: in vivo, guinea pig
Description: as §1, §2
The delayed SCD protocol was used to investigate the effect of chronic CGP-37157 treatment on mortality and the development of heart failure. Survival was extended using this protocol as compared with the acute SCD model. In the absence of CGP-37157, however, the death rate of the animals approached 60% by 30 days post-banding (see FIG. 10). In contrast, more than 78% of the animals survived in the group with CGP-37157 treatment (see FIG. 10).
Further, echocardiographic studies were carried out before surgery and at four weeks after aortic banding (see FIG. 11). […] In the group with CGP-37157 treatment, however, cardiac function was maintained.

[3] = target: T1, mitochondrial Na+/Ca2+ exchanger (mNCE) (Cavia porcellus, UniProt H0V3X3); conditions: cited from earlier work
T1 construct: in normal cardiac myocytes, with [Na^+]i elevated artificially using the patch clamp technique, and in myocytes isolated from failing hearts; host or cells: isolated cardiac myocytes (endogenous protein)
T1 sequence (H0V3X3 27-580): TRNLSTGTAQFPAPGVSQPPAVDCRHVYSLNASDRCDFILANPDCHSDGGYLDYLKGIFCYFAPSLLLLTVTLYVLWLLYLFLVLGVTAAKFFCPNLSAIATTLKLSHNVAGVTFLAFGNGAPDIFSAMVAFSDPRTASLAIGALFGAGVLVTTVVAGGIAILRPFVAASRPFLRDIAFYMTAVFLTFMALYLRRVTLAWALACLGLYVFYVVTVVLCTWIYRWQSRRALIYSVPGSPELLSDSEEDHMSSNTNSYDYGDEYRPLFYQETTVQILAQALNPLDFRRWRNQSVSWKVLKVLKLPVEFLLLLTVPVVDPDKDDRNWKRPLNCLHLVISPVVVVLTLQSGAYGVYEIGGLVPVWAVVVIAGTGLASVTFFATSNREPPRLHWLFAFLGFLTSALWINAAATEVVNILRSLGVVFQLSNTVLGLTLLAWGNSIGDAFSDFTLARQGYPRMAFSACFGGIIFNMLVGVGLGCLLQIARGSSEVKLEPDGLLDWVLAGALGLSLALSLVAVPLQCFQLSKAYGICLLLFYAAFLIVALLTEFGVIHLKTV

[4] = system: Guinea pig ventricular myocytes; assay: [Na+]i recording with SBFI in isolated cardiac myocytes; type: cell-based; conditions: ouabain at different concentrations, at rest or with 1-Hz stimulation
Experimental: Guinea pig ventricular myocytes were isolated by enzymatic digestion as described previously. O'Rourke, B., et al., “Oscillations of membrane current and excitability driven by metabolic oscillations in heart cells,” Science, 265(5174):962-966 (Aug. 12, 1994). Cells were suspended in Dulbecco's Modification of Eagle's Medium (DMEM) supplemented with 5% fetal bovine serum, 1% penicillin/streptomycin, and 15 mmol/L HEPES, pH 7.4, and stored in a 5% CO2 incubator at 37° C.
Cytosolic Ca^2+ ([Ca^2+]c), mitochondrial Ca^2+ ([Ca^2+]m), and [Na^+]i were measured with the fluorescent indicators indo-1, rhod-2, and sodium-binding benzofuran isophthalate (SBFI), respectively (Invitrogen, Carlsbad, Calif.), and mitochondrial NADH was measured as the cellular autofluorescence with 360-nm excitation/450-nm emission. Indo-1 was loaded into cell with the membrane permeable form, indo-1 AM. To minimize indo-1 loading into the mitochondrial compartment, cells were briefly incubated with indo-1 AM at room temperature for 20 min. Rhod-2 and SBFI experiments were carried out as previously described. Maack et al., supra, Liu and O'Rourke, supra. […]
Isolated ventricular myocytes were loaded into a heated field-stimulation chamber (Warner Instruments, Hamden, Conn.) at 37° C. on the stage of a fluorescence microscope (Nikon Eclipse TE300, Nikon Instruments, Inc., Melville, N.Y.). […]

SMILES | death rate (aortic-banded animals [1]) [%] | animals survived (aortic-banded animals [2]; 30 days post-banding, daily isoproterenol, CGP-37157 by osmotic pump, death rate approached 60% without CGP-37157) | Fractional Shortening (FS) at baseline (aortic-banded animals [2]; CGP-37157-treated group, before surgery, n=6) | Fractional Shortening (FS) at four weeks after aortic banding (aortic-banded animals [2]; CGP-37157-treated group, n=6, without CGP-37157 FS decreased from 54.9 to 42.5) | left ventricular wall thickness (aortic-banded animals [2]; echocardiography four weeks after aortic banding versus before surgery) | mitochondrial NADH production ([3]; cells with elevated [Na+]i) | mitochondrial Ca2+ retention capacity ([3]; inhibition of [Ca2+]m efflux) | [Na+]i [4]
O=C1CSC(c2ccccc2Cl)c2cc(Cl)ccc2N1 (centres unmarked) [CGP-37157, 7-chloro-5-(2-chlorophenyl)-1,5-dihydro-4,1-benzothiazepin-2(3H)-one] | 20 | more than 78% | 54.0%±1.0 | 59.2%±1.8 | increased similarly in both groups | restores mitochondrial NADH production | increases mitochondrial Ca^2+ retention capacity | 
C[C@@H]1O[C@@H](O[C@H]2C[C@@H](O)[C@]3(CO)[C@H]4[C@H](O)C[C@]5(C)[C@@H](C6=CC(=O)OC6)CC[C@]5(O)[C@@H]4CC[C@]3(O)C2)[C@H](O)[C@H](O)[C@H]1O [ouabain, 1β,3β,5β,11α,14,19-Hexahydroxycard-20(22)-enolide 3-(6-deoxy-α-L-mannopyranoside, reference compound] |  |  |  |  |  |  |  | elevated [Na^+]i monotonically in a dose-dependent way
